Data from patent publication US20230041743A1, “1,8-NAPHTHYRIDIN-2-ONE COMPOUNDS FOR THE TREATMENT OF AUTOIMMUNE DISEASE” (Hoffmann-La Roche Inc., priority 2019, published 2023).

Each molecule was assayed against T1, human TLR7 (Homo sapiens, UniProt Q9NYK1) (assay: HEK293-Blue-hTLR-7 cells assay (SEAP reporter, R848 stimulation)). Conditions: HEK293-Blue-hTLR7 cells, R848 ligand, 20 hrs incubation; read-out: HEK/hTLR7 IC50.
T1 construct: host or cells: HEK293 (HEK-Blue hTLR7)
T1 sequence (Q9NYK1 27-1049): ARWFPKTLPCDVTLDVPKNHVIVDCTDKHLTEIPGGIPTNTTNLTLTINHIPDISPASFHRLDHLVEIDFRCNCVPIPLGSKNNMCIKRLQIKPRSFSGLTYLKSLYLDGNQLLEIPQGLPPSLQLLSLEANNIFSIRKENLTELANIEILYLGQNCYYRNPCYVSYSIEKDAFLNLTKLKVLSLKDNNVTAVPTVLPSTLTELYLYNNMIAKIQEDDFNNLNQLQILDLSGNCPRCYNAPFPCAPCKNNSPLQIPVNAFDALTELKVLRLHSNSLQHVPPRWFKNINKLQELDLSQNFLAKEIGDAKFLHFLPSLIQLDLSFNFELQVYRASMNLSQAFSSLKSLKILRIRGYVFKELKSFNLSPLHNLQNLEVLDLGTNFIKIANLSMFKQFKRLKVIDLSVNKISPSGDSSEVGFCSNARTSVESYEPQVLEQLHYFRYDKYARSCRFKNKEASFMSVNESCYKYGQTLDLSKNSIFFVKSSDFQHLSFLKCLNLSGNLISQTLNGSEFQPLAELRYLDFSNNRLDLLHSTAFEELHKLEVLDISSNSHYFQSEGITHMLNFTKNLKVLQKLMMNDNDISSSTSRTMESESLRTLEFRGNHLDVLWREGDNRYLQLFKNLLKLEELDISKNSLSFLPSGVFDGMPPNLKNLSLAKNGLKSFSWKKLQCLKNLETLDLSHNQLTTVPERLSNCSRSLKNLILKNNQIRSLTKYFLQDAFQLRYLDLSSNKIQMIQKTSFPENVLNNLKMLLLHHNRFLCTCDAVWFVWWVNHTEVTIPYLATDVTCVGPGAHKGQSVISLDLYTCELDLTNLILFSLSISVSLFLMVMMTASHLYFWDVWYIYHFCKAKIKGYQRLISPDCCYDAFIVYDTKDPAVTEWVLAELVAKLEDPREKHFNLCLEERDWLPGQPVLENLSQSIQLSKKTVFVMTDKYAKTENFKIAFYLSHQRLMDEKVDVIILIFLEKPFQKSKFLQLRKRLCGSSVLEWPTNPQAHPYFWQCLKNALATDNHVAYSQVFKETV
Assay type: cell-based
Source text: HEK293-Blue-hTLR-7 Cells Assay:
A stable HEK293-Blue-hTLR-7 cell line was purchased from InvivoGen (Cat. #: hkb-htlr7, San Diego, Calif., USA). These cells were originally designed for studying the stimulation of human TLR7 by monitoring the activation of NF-κB. A SEAP (secreted embryonic alkaline phosphatase) reporter gene was placed under the control of the IFN-β minimal promoter fused to five NF-κB and AP-1-binding sites. The SEAP was induced by activating NF-κB and AP-1 via stimulating HEK-Blue hTLR7 cells with TLR7 ligands. Therefore the reporter expression was declined by TLR7 antagonist under the stimulation of a ligand, such as R848 (Resiquimod), for incubation of 20 hrs. The cell culture supernatant SEAP reporter activity was determined using QUANTI-Blue™ kit (Cat. #: rep-qb1, Invivogen, San Diego, Ca, USA) at a wavelength of 640 nm, a detection medium that turns purple or blue in the presence of alkaline phosphatase.
HEK293-Blue-hTLR7 cells were incubated at a density of 250,000-450,000 cells/mL in a volume of 170 μL in a 96-well plate in Dulbecco's Modified Eagle's medium (DMEM) containing 4.5 g/L glucose, 50 U/mL penicillin, […], […], 2 mM L-glutamine, 10% (v/v) heat-inactivated fetal bovine serum with addition of 20 μL test compound in a serial dilution in the presence of final DMSO at 1% and 10 μL of 20 uM R848 in above DMEM, perform incubation under 37° C. in a CO2 incubator for 20 hrs. Then 20 μL of the supernatant from each well was incubated with 180 μL Quanti-blue substrate solution at 37° C. for 2 hrs and the absorbance was read at 620˜655 nm using a spectrophotometer. The signaling pathway that TLR7 activation leads to downstream NF-κB activation has been widely accepted, and therefore similar reporter assay was modified for evaluating TLR7 antagonist.

Row | SMILES | IC50
1 | C[C@@H]1CN(c2cc(=O)n(C)c3ncccc23)C[C@@H]2c3ccc(N4C[C@H]5C[C@@H]4CN5)cc3CN12 [Example 20, 4-[(4R,10bS)-8-[(1R,4R)-2,5-diazabicyclo[2.2.1]heptan-2-yl]-4-methyl-3,4,6,10b-tetrahydro-1H-pyrazino[2,1-a]isoindol-2-yl]-1-methyl-1,8-naphthyridin-2-one] | 52.1 nM
2 | C[C@@H]1CN(c2cc(=O)n(C)c3ncccc23)C[C@@H]2c3ccc(N4CC5CCC(C4)N5)cc3CN12 [Example 21, 4-[(4R,10bS)-8-(3,8-diazabicyclo[3.2.1]octan-3-yl)-4-methyl-3,4,6,10b-tetrahydro-1H-pyrazino[2,1-a]isoindol-2-yl]-1-methyl-1,8-naphthyridin-2-one] | 13.7 nM
3 | C[C@@H]1CN(c2cc(=O)n(C)c3ncccc23)C[C@@H]2c3ccc(N4CCOC[C@H](N)C4)cc3CN12 [Example 22, 4-[(4R,10bS)-8-[(6R)-6-amino-1,4-oxazepan-4-yl]-4-methyl-3,4,6,10b-tetrahydro-1H-pyrazino[2,1-a]isoindol-2-yl]-1-methyl-1,8-naphthyridin-2-one] | 35.8 nM
4 | C[C@@H]1CN(c2cc(=O)n(C)c3ncccc23)C[C@@H]2c3ccc(OCCN(C)C)cc3CN12 [Example 23, 4-[(4R,10bS)-8-[2-(dimethylamino)ethoxy]-4-methyl-3,4,6,10b-tetrahydro-1H-pyrazino[2,1-a]isoindol-2-yl]-1-methyl-1,8-naphthyridin-2-one] | 31 nM
5 | C[C@@H]1CN(c2cc(=O)n(C)c3ncccc23)C[C@@H]2c3ccc(C4CCNCC4)cc3CN12 [Example 24, 4-[(4R,10bS)-4-methyl-8-(4-piperidyl)-3,4,6,10b-tetrahydro-1H-pyrazino[2,1-a]isoindol-2-yl]-1-methyl-1,8-naphthyridin-2-one] | 3.7 nM
6 | C[C@@H]1CN(c2cc(=O)n(C)c3ncccc23)C[C@@H]2c3ccc(C4CCCNC4)cc3CN12 (stereo partly drawn) [Example 25, 4-[(4R,10bS)-4-methyl-8-(3-piperidyl)-3,4,6,10b-tetrahydro-1H-pyrazino[2,1-a]isoindol-2-yl]-1-methyl-1,8-naphthyridin-2-one] | 6.7 nM
7 | C[C@@H]1CN(c2cc(=O)n(C)c3ncccc23)C[C@@H]2c3ccc(C4CCNC4)cc3CN12 (stereo partly drawn) [Example 26, 4-[(4R,10bS)-4-methyl-8-pyrrolidin-3-yl-3,4,6,10b-tetrahydro-1H-pyrazino[2,1-a]isoindol-2-yl]-1-methyl-1,8-naphthyridin-2-one] | 8.3 nM
8 | C[C@@H]1CN(c2cc(=O)n(C)c3ncccc23)C[C@@H]2c3ccc([C@H]4CC[C@H](N5CCOCC5)CC4)cc3CN12 [Example 27A, 4-[(4R,10bS)-4-methyl-8-(trans-4-morpholinocyclohexyl)-3,4,6,10b-tetrahydro-1H-pyrazino[2,1-a]isoindol-2-yl]-1-methyl-1,8-naphthyridin-2-one] | 7 nM
9 | C[C@@H]1CN(c2cc(=O)n(C)c3ncccc23)C[C@@H]2c3ccc([C@H]4CC[C@@H](N5CCOCC5)CC4)cc3CN12 [Example 27B, 4-[(4R,10bS)-4-methyl-8-(cis-4-morpholinocyclohexyl)-3,4,6,10b-tetrahydro-1H-pyrazino[2,1-a]isoindol-2-yl]-1-methyl-1,8-naphthyridin-2-one] | 10 nM
10 | C[C@@H]1CN(c2cc(=O)n(C)c3ncccc23)C[C@@H]2c3ccc([C@H]4C[C@H]5COC[C@@H](C4)N5)cc3CN12 [Example 28A, 4-[(4R,10bS)-4-methyl-8-(endo-3-oxa-9-azabicyclo[3.3.1]nonan-7-yl)-3,4,6,10b-tetrahydro-1H-pyrazino[2,1-a]isoindol-2-yl]-1-methyl-1,8-naphthyridin-2-one] | 7.2 nM
11 | C[C@@H]1CN(c2cc(=O)n(C)c3ncccc23)C[C@@H]2c3ccc([C@@H]4C[C@H]5COC[C@@H](C4)N5)cc3CN12 [Example 28B, 4-[(4R,10bS)-4-methyl-8-(exo-3-oxa-9-azabicyclo[3.3.1]nonan-7-yl)-3,4,6,10b-tetrahydro-1H-pyrazino[2,1-a]isoindol-2-yl]-1-methyl-1,8-naphthyridin-2-one] | 8.6 nM
12 | CCn1c(=O)cc(N2C[C@@H](C)N3Cc4cc(N5C[C@@H](N)[C@H](OC)C5)ccc4[C@H]3C2)c2cccnc21 [Example 29, 4-[(4R,10bS)-8-[(3R,4R)-3-amino-4-methoxy-pyrrolidin-1-yl]-4-methyl-3,4,6,10b-tetrahydro-1H-pyrazino[2,1-a]isoindol-2-yl]-1-ethyl-1,8-naphthyridin-2-one] | 85.2 nM
